PubChem BioAssay AID1918938 (Molecular Pharmacology Branch, DTP, NCI, 2023)
pIC50: −log10 of the molar value.

Test system: 556581-035-R-J1-PDC complex spheroid viability
Experiment: Anticancer human tumor 556581-035-R-J1-PDC patient-derived ovarian carcinoma cell line growth inhibition
Conditions: for pIC50: curve of first compound; for viability, T/C: stronger effect = lower value; active = viability on the fitted dose curve at most 10% of control; inactive = the rest
In short: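 Complex spheroids of tumor cells with HUVEC and human MSCs, exposed to iadademstat combined with other agents. Each agent tested in half-log steps from near clinical Cmax (else 10 microM top), DMSO ≤0.25%.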
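Note: spheroids exposed to agents for seven days.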
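Throughout, for viability, T/C: 100% = DMSO vehicle control wells.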

CC1(C)CCC(CN2CCN(c3ccc(C(=O)NS(=O)(=O)c4ccc(NCC5CCOCC5)c([N+](=O)[O-])c4)c(Oc4cnc5[nH]ccc5c4)c3)CC2)=C(c2ccc(Cl)cc2)C1 + NC1CCC(NC2CC2c2ccccc2)CC1
5.42: pIC50 (second compound 3.16 µM)
active: viability, T/C (second compound 0.1 µM, first compound 10 µM) 9.71% | viability, T/C (second compound 0.316 µM, first compound 10 µM) 7.68% | viability, T/C (second compound 10 µM, first compound 10 µM) 7.8%
inactive: viability, T/C (second compound 0.1 µM, first compound 0.0316 µM) 80.7% | viability, T/C (second compound 0.1 µM, first compound 0.1 µM) 86.4% | viability, T/C (second compound 0.1 µM, first compound 0.316 µM) 80% | viability, T/C (second compound 0.1 µM, first compound 1 µM) 82.8% | viability, T/C (second compound 0.1 µM, first compound 3.16 µM) 65.8% | viability, T/C (second compound 0.316 µM, first compound 0.0316 µM) 79.9% | viability, T/C (second compound 0.316 µM, first compound 0.1 µM) 93.8% | viability, T/C (second compound 0.316 µM, first compound 0.316 µM) 89.5% | viability, T/C (second compound 0.316 µM, first compound 1 µM) 84.9% | viability, T/C (second compound 0.316 µM, first compound 3.16 µM) 54.1% | viability, T/C (second compound 1 µM, first compound 0.0316 µM) 74.2% | viability, T/C (second compound 1 µM, first compound 0.1 µM) 90.7% | viability, T/C (second compound 1 µM, first compound 0.316 µM) 88% | viability, T/C (second compound 1 µM, first compound 1 µM) 70.8% | viability, T/C (second compound 1 µM, first compound 3.16 µM) 64.5% | viability, T/C (second compound 1 µM, first compound 10 µM) 10.5% | viability, T/C (second compound 3.16 µM, first compound 0.0316 µM) 79.2% | viability, T/C (second compound 3.16 µM, first compound 0.1 µM) 77.1% | viability, T/C (second compound 3.16 µM, first compound 0.316 µM) 77.5% | viability, T/C (second compound 3.16 µM, first compound 1 µM) 70.6% | viability, T/C (second compound 3.16 µM, first compound 3.16 µM) 58.6% | viability, T/C (second compound 3.16 µM, first compound 10 µM) 11.8% | viability, T/C (second compound 10 µM, first compound 0.0316 µM) 75.4% | viability, T/C (second compound 10 µM, first compound 0.1 µM) 77.3% | viability, T/C (second compound 10 µM, first compound 0.316 µM) 73.5% | viability, T/C (second compound 10 µM, first compound 1 µM) 59.9% | viability, T/C (second compound 10 µM, first compound 3.16 µM) 52.4%
5.53: pIC50 (second compound 10 µM)
5.38: pIC50 (second compound 1 µM)
5.36: pIC50 (second compound 0.1 µM)
5.46: pIC50 (second compound 0.316 µM)

CCN(c1cc(-c2ccc(CN3CCOCC3)cc2)cc(C(=O)NCc2c(C)cc(C)[nH]c2=O)c1C)C1CCOCC1 + NC1CCC(NC2CC2c2ccccc2)CC1
5.77: pIC50 (second compound 0.1 µM)
inactive: viability, T/C (second compound 0.1 µM, first compound 0.00949 µM) 89.1% | viability, T/C (second compound 0.1 µM, first compound 0.03 µM) 97% | viability, T/C (second compound 0.1 µM, first compound 0.0949 µM) 100% | viability, T/C (second compound 0.1 µM, first compound 0.3 µM) 81.3% | viability, T/C (second compound 0.1 µM, first compound 0.949 µM) 59.1% | viability, T/C (second compound 0.1 µM, first compound 3 µM) 41.7% | viability, T/C (second compound 0.316 µM, first compound 0.00949 µM) 84.5% | viability, T/C (second compound 0.316 µM, first compound 0.03 µM) 91.7% | viability, T/C (second compound 0.316 µM, first compound 0.0949 µM) 93.9% | viability, T/C (second compound 0.316 µM, first compound 0.3 µM) 85.6% | viability, T/C (second compound 0.316 µM, first compound 0.949 µM) 55% | viability, T/C (second compound 0.316 µM, first compound 3 µM) 50.6% | viability, T/C (second compound 1 µM, first compound 0.00949 µM) 90.7% | viability, T/C (second compound 1 µM, first compound 0.03 µM) 93% | viability, T/C (second compound 1 µM, first compound 0.0949 µM) 88.5% | viability, T/C (second compound 1 µM, first compound 0.3 µM) 77.3% | viability, T/C (second compound 1 µM, first compound 0.949 µM) 57.1% | viability, T/C (second compound 1 µM, first compound 3 µM) 47.7% | viability, T/C (second compound 3.16 µM, first compound 0.00949 µM) 91.1% | viability, T/C (second compound 3.16 µM, first compound 0.03 µM) 100% | viability, T/C (second compound 3.16 µM, first compound 0.0949 µM) 76.1% | viability, T/C (second compound 3.16 µM, first compound 0.3 µM) 69.8% | viability, T/C (second compound 3.16 µM, first compound 0.949 µM) 60.1% | viability, T/C (second compound 3.16 µM, first compound 3 µM) 49.5% | viability, T/C (second compound 10 µM, first compound 0.00949 µM) 82.8% | viability, T/C (second compound 10 µM, first compound 0.03 µM) 88.3% | viability, T/C (second compound 10 µM, first compound 0.0949 µM) 76.5% | viability, T/C (second compound 10 µM, first compound 0.3 µM) 70.6% | viability, T/C (second compound 10 µM, first compound 0.949 µM) 54% | viability, T/C (second compound 10 µM, first compound 3 µM) 44.9%
< 5.52: pIC50 (second compound 0.316 µM) | pIC50 (second compound 3.16 µM)
5.79: pIC50 (second compound 10 µM)
5.64: pIC50 (second compound 1 µM)
